# In US11980645B2, “Bile acids and use in disease treatment” (The Regents of the University of California, priority 2019, dated 2024):
# Tests used:
# [1] = LC-MS/MS screen of murine portal and peripheral blood for conjugated bile acids
# Excerpt: Portal and peripheral blood was collected from additional SPF (n=4) and GF (n=6) mice and screened for the presence of conjugated bile acids.
# Bile Acids in Murine Portal and Peripheral Blood. An additional 4 SPF and 6 GF female mice of the same strain analyzed for the initial study on the microbial metabolome were raised for analysis of blood. Portal blood and peripheral blood were sampled as described in the methods section and analyzed with the same LC-MS/MS protocols as the original animals.
# [2] = tested on: human fecal batch culture; assay: Incubation with actively growing human fecal batch culture (metabolism by microbiota); format: in vitro ADME; conditions: 10 μM bile acid, 24 h
# Excerpt: FIGS. […]. Distribution and metabolism of novel conjugated bile acids. FIG. 9a) Molecular network of SPF duodenum MS/MS data and synthesized amino acid conjugated bile acids. LC-MS/MS data from synthetic standards was networked with murine samples and spectral matching through molecular networking is indicated by node greyscale. Mirror plots showing the alignment between the murine and standards are shown. Nodes shaped as arrowheads had hits in the GNPS libraries and node size is scaled to the spectral count. Tauro=Taurocholic acid. These experiments were repeated twice. FIG. 9b) 3D-molecular cartography of the mean abundance of the newly discovered conjugates mapped onto a 3D-rendered model of the murine GI tract as a heatmap according to the greyscale. Organs are labeled as described in FIG. 1. FIG. 9c) Molecular network of GF and SPF portal and peripheral blood conjugated bile acids. Nodes are colored by source as either GF and SPF or portal/peripheral blood. Arrowhead nodes represent known compounds in the GNPS spectral database, circular nodes represent unknowns. The annotations are through spectral matches against reference libraries (level 2 or 3^3). FIG. 9d) Mean area under curve abundance and standard deviations of bile acids of interest during incubation with an actively growing batch human fecal culture for 24 h (n=3). FIG. 9e) Molecular network of novel conjugated bile acids after incubation in a human fecal batch culture experiment. Each node represents a unique MS/MS spectrum and arrowhead shaped nodes indicate known spectra in the GNPS database. The nodes are greyscale by their retention time according to the legend and the mass shift between nodes are mapped onto the edge representing the cosine connection between related spectra. The H2 mass shift representing oxidation of the novel conjugates is shown. FIG. 9f) Mean ion intensity and standard deviations of the dehydrogenated forms of Phe-chol, Tyr-chol and Leu-chol through the 24 h batch fecal culture incubation (n=3).
# Fecal Culture Bioreactor Inoculation. A 4 g stool sample was resuspended in 40 mL modified yeast casitone fatty acids media (mYCFA, DMSZ recipe) with 0.25% Antifoam B Silicon Emulsion (Baker) in a vinyl anaerobic chamber (Coy). The resuspension was centrifuged at 500× g for 5 minutes to pellet solids. The supernatant was decanted through a sterile […] filter. The filtrate was centrifuged at 4450× g for 10 minutes to pellet cells. The supernatant was discarded, and the pellet was resuspended in 40 mL mYCFA. The resuspension was drawn into a 60 mL syringe and injected into a 500 mL vessel of an Infors Multifors 2 bioreactor. The chemostat process parameters was modified from a previous process developed in^26. The chemostat volume parameters were; 400 mL culture volume, 24-hour retention rate, 50 mL/min nitrogen, stirrer at 250 rpm, and 37° C. temperature. […] 15 μL stocks were added to 12 mL mYCFA. After 11 days of continuous culturing, 24 mL bioreactor culture was withdrawn and transferred to the anaerobic chamber. 3 mL culture was added to the 12 mL mYCFA aliquots with the bile acids, for a total volume of 15 mL and final concentration of 10 μM bile acid. The cultures were vortexed and split into three 5 mL aliquots. At time 0 (blanks for each bile acid), 1, 3, 6, 12 and 24 hours, 0.1 mL aliquots were removed from the samples for metabolomics and 16S rRNA gene sequencing. […]
# [3] = tested on: FXR effector genes Fgf15, Shp, Cyp7a1, Cyp8b1; assay: Bile acid gavage of mice, RT-qPCR of downstream FXR effector genes in ileum and liver; conditions: for Fgf15 expression in the intestine, increase / Shp expression in the intestine, increase: oral gavage 500 mg/kg in corn oil
# Description: The gene expression of Fgf15 and Shp in the ileum and Shp, Cyp8b1 and Cyp7a1 in the liver of mice gavaged with bile acids of interest were analyzed using quantitative reverse transcriptase-PCR analysis. The expression levels were normalized to the cellular housekeeping gene ribosomal phosphoprotein PO (36B4).
# Bile acid Gavage of Mice. Eight-week-old Male C57BL/6J mice (Jackson Laboratory) were acclimated for 14 days and housed in groups of two throughout the duration of the experiment to mitigate cage effects. Mice were then dosed 2 times (24 hour) or 4 times (72 hour) (t=0 hr, t=24 hr, t=48 hr, t=72 hr) by oral gavage with either a mock control of corn oil without bile acids, or corn oil infused Tyr-chol (500 mg/kg body weight), Leu-chol (500 mg/kg body weight), cholic acid (500 mg/kg body weight) or the control FXR agonist GW4064 (10 mg/kg body weight). Starting 3 hours after the last gavage (t=75 hr, 72 hour treatment or t=25, 24 hour treatment), mice were euthanized by CO2 asphyxiation and samples were collected within a 6 hour period and snap frozen in a liquid nitrogen bath and stored at −80° C. prior to analysis. […] Ileum and liver samples were used for qPCR.
# RT-qPCR Analysis of Downstream FXR Gene Expression. Mouse liver and ileum segments were directly homogenized in TRIzol and total RNA isolated. cDNA was synthesized from 1 μg of DNase-treated total RNA using Bio-Rad iScript Reverse Transcription supermix (#1708841) and mRNA levels of Fgf15, Shp, Cyp7b1 and Cyp7a1 were quantified by quantitative PCR with Advanced Universal SyBr Green Supermix (Bio-Rad, cat #725271). All samples were run in technical triplicates and relative mRNA levels were calculated by using the standard curve methodology and normalized to 36B4.
# human FXR = target: T1, human FXR (Homo sapiens, UniProt Q96RI1); assay: FXR luciferase reporter assay in HEK-293 cells; conditions: for human FXR agonism: HEK-293 luciferase reporter
# T1 sequence (Q96RI1 1-486): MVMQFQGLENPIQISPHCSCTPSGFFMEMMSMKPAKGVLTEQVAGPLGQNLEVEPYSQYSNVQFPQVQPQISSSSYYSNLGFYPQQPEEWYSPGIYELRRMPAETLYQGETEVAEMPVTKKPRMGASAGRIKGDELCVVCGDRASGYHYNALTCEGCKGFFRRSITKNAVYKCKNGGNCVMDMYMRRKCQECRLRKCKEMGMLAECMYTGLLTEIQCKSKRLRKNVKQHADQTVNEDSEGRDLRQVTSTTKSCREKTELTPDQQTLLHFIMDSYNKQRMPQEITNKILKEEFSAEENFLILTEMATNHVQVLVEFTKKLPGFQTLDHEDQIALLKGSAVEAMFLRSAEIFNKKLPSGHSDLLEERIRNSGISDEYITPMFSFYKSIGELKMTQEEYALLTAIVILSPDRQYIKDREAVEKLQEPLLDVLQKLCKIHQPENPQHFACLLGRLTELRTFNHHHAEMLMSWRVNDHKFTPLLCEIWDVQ
# T1 sequence (P19793 1-462 partner): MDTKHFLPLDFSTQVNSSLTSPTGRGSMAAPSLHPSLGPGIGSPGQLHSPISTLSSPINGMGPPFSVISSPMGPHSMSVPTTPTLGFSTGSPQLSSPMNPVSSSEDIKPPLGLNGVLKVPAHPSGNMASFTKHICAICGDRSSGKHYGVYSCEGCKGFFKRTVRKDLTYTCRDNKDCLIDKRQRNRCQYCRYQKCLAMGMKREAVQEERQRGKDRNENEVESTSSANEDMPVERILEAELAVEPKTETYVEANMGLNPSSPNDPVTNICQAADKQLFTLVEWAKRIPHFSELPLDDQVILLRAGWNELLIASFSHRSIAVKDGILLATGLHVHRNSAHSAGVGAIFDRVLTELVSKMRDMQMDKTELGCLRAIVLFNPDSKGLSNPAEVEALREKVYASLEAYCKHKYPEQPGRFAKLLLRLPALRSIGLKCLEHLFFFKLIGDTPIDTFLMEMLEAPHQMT
# Description: To assess the ability of the novel bile acids from the invention to affect human FXR signaling, a luciferase reporter assay was established in HEK-293 embryonic kidney cells^39.
# Human kidney cell line HeK-293 was obtained from American Type Culture Collection (ATCC CRL-1573, tested for Mycoplasma contamination every 6 months). These cells were chosen due to their high transfectability and low FXR expression which allows for a robust signal to noise ratio. These 293 cells were cultured in Dulbecco's modified Eagle's medium/F-12 (DMEM) supplemented with 10% (V/V heat-inactivated fetal calf serum (FBS) and 100 units/ml penicillin G and 100 μg/ml streptomycin. 10,000 cells were seeded per well in 96-well plates one day before transfection of plasmids. DNA was transiently transfected by Lipofectamine 2000 and Opti-MDM in fasting state. The ratio of plasmid used in per well were 50 ng of FXR response element (FXRE)/luciferase reporter plasmid, 10 ng of pCMV-3flag-FXR (human) plasmid, 10 ng of pCMV-RXR (human) plasmid, and 5 ng of Renilla luciferase reporter plasmid as internal standard for transfection efficiency. […] Cells were harvested 24 hrs later and lysed with passive lysis buffer (Promega). Luciferase activities were measured by the Dual-Luciferase Reporter (DLR™) Assay kit and read by Luminometer (Perkin Elmer). The final Luciferase activities were normalized by dividing the relative light units by Renilla luciferase activity. Statistical analyses were performed using Prism software. Each dosage was done in 12 replicates.
SMILES,"presence in portal and peripheral blood ([1]; mouse, in vivo)",deconjugation by the microbiota [2],"liver Cyp7a1 expression vs corn oil control (significance) ([3]; gavage, 24 hrs)","liver Cyp8b1 expression vs corn oil control (significance) ([3]; gavage, 24 hrs)","ileum Fgf15 signaling vs corn oil control (significance) ([3]; gavage, 72 hrs)","ileum Shp signaling vs corn oil control (significance) ([3]; gavage, 72 hrs)","liver Cyp7a1 expression vs corn oil control (significance) ([3]; gavage, 72 hrs)","liver Cyp8b1 expression vs corn oil control (significance) ([3]; gavage, 72 hrs)",further results
"C[C@H](CCC(=O)NCC(=O)O)[C@H]1CC[C@H]2[C@@H]3[C@H](O)C[C@@H]4C[C@H](O)CC[C@]4(C)[C@H]3C[C@H](O)[C@]12C [GCA, glycocholic acid, reference compound]",present,deconjugation readily occurred,–,–,–,–,–,–,oxidation of the cholate core by microbial enzymes [2]: no concurrent oxidation
"CC(C)c1onc(-c2c(Cl)cccc2Cl)c1COc1ccc(/C=C/c2cccc(C(=O)O)c2)c(Cl)c1 [GW4064, reference compound]",–,–,–,–,–,–,–,–,"ileum Shp expression vs corn oil control (significance) ([3]; gavage, 24 hr): significance was also reached"
"CC(C)C[C@H](NC(=O)CC[C@@H](C)[C@H]1CC[C@H]2[C@@H]3[C@H](O)C[C@@H]4C[C@H](O)CC[C@]4(C)[C@H]3C[C@H](O)[C@]12C)C(=O)O [Leu-chol, leucocholic acid]",not found,not deconjugated,significantly reduced,significantly reduced,significantly increased,significantly increased,significantly reduced,significantly reduced,"liver Shp expression vs corn oil control (significance) ([3]; gavage, 72 hrs): significantly elevated"
"C[C@H](CCC(=O)N[C@@H](Cc1ccccc1)C(=O)O)[C@H]1CC[C@H]2[C@@H]3[C@H](O)C[C@@H]4C[C@H](O)CC[C@]4(C)[C@H]3C[C@H](O)[C@]12C [Phe-chol, phenylalanocholic acid]",not found,not deconjugated,–,–,–,–,–,–,EC50 (human FXR): 4500 nM; human FXR agonism (human FXR): strong human FXR agonists
"C[C@H](CCC(=O)NCCS(=O)(=O)O)[C@H]1CC[C@H]2[C@@H]3[C@H](O)C[C@@H]4C[C@H](O)CC[C@]4(C)[C@H]3C[C@H](O)[C@]12C [TCA, Taurocholic acid, reference compound]",–,–,–,–,–,–,–,–,"presence in portal and peripheral blood ([1]; SPF (n=4) and GF (n=6) mice, endogenous): present"
"C[C@H](CCC(=O)N[C@@H](Cc1ccc(O)cc1)C(=O)O)[C@H]1CC[C@H]2[C@@H]3[C@H](O)C[C@@H]4C[C@H](O)CC[C@]4(C)[C@H]3C[C@H](O)[C@]12C [Tyr-chol, tyrosocholic acid]",not found,not deconjugated,significantly reduced,significantly reduced,significantly increased,significantly increased,significantly reduced,significantly reduced,"EC50 (human FXR): 140 nM; human FXR agonism (human FXR): strong human FXR agonists; ileum Fgf15 expression vs corn oil control (significance) ([3]; gavage, 24 hr): significantly elevated; Shp expression in the liver ([3]; gavage, 24 hrs): did not change detectably; liver Cyp7a1 expression ([3]; gavage, 24 hrs): 9 % of control; liver Cyp8b1 expression ([3]; gavage, 24 hrs): 69 % of control; Shp expression in the liver, increase ([3]; gavage, 72 hrs): 2.3 fold; liver Shp expression vs corn oil control (significance) ([3]; gavage, 72 hrs): significantly elevated; liver Cyp7a1 expression ([3]; gavage, 72 hrs (4 gavages)): 8 % of control; liver Cyp8b1 expression ([3]; gavage, 72 hrs (4 gavages)): 2 % of control; Fgf15 expression in the intestine, increase ([3]; 24 hrs): 12.2 fold; Shp expression in the intestine, increase ([3]; 24 hrs): 13.3 fold; Fgf15 expression in the intestine, increase ([3]; 72 hrs (4 gavages)): 6.2 fold; Shp expression in the intestine, increase ([3]; 72 hrs (4 gavages)): 9.3 fold"
"C[C@H](CCC(=O)O)[C@H]1CC[C@H]2[C@@H]3[C@H](O)C[C@@H]4C[C@H](O)CC[C@]4(C)[C@H]3C[C@H](O)[C@]12C [cholic acid, reference compound]",–,–,significantly reduced,significantly reduced,significantly increased,significantly increased,significantly reduced,significantly reduced,"ileum Shp expression vs corn oil control (significance) ([3]; gavage, 24 hr): significance was also reached"
